Measured values: patent US4011313A, “Medicament preparations” (Syntex (U.S.A.) Inc., priority 1975, dated 1977)
Counter-ions that a name gives are not always drawn. Like-named read-outs stand apart in the source and are kept apart here.

How the values were obtained:
[1] = Palmitic acid diethanolamide stability at 80° C; assay type: physicochemical; conditions: under air, 14 days
Excerpt: The formulation remains undecomposed after 14 days. The same result is attained with a formulation which additionally contains 0.05% BHA.

[2] = Chloramphenicol activity after storage at 80° C, with extrapolated shelf-life; conditions: for chloramphenicol percent of initial activity: 80° C
[3] = Nystatin activity after storage at 80° C; assay type: physicochemical; conditions: for nystatin percent of initial activity: 0.5 mg/ml in polyethylene glycol-350-dimethyl ether, 0.05% BHA, under air
Excerpt: Thus, the polyethylene glycol-350-dimethyl ether has a significant stabilizing effect on nystatin when compared to polyethylene glycol 400.

[4] = Oleic acid diethanolamide activity after storage at 80° C, with extrapolated shelf time; assay type: physicochemical
lipase = experiment: In vitro lipase inhibition; assay type: biochemical
[5] = in several polyethylene glycols, cited from earlier work
[6] = Decomposition of aspirin vs. time at 80° C in vehicle, with extrapolated shelf-life; assay type: physicochemical; conditions: for shelf-life at 25° C: extrapolated from 80° C
Experimental: A formulation is prepared having 0.5 g. aspirin and 0.05% BHA per 1.0 g. polyethylene glycol-750-dimethyl ether, and stored at 80° C. Decomposition of the aspirin is measured vs. time. The time for 10% decomposition is 27 hours. This reflects approximately a 30 month shelf-life at 25° C. This can be compared to a published report[Jun et al., J. Pharm. Sec.
The time for 10% decomposition (t90) is 24 hours. This reflects approximately a 30 month shelf-life at 25° C. Thus, this Example describes the preparation of a liquid aspirin formulation which is stable for long periods of time at or about room temperature.
Sciences, 53, 815-818 (July, 1964).

[7] = PGE2 activity after storage at 80° C in polyethylene glycol-550-dimethyl ether; assay type: physicochemical; conditions: 1 mg PGE2, 0.01% edetic acid, 0.01% BHA, 0.01% BHT per ml polyethylene glycol-550-dimethyl ether, nitrogen, 18 days
Experimental: The following formulations are prepared having 1 mg. PGE2 per ml. of polyethylene glycol-550-dimethyl ether, and the additional material(s) as set forth below.
A formulation is prepared having 1 mg. PGE2 , 0.01% edetic acid, 0.01% BHA and 0.01% BHT per ml. polyethylene glycol-550-dimethyl ether, and sealed in an ampule under nitrogen atmosphere.

[8] = General chemical stability of prostaglandins; assay type: physicochemical; conditions: with dimethyl ether of polyethylene glycol 550, extended period above room temperature
Excerpt: See, for example, Brummer J. Pharm. Pharmac. 23, 804 (1971), and Karim et al., European J. Pharmacol. 4, 416 (1968). It would, therefore, be desirable to have a prostaglandin preparation wherein the prostaglandin material is stabilized by the vehicle material.
The above and still further objects, features, and advantages of the present invention are achieved, in accordance therewith, by admixing a pharmaceutically active quantity of an active medicament material with a dialkylated mono- or poly-alkylene glycol optionally including an antioxidant for the glycol vehicle.

[9] = literature: Brummer 1971; Karim et al. 1968; cited from earlier work
[10] = PGE2 activity after storage at 60° C in glyme or triethylene glycol-dimethyl ether; assay type: physicochemical; conditions: nitrogen
Experimental: A formulation is prepared having 1 mg. PGE2 per ml. 1,2-dimethoxyethane. After 12 days storage at 60° C. under a nitrogen atmosphere, the PGE2 assays 100% of its initial activity.
A formulation is prepared having 1 mg. PGE2 per ml. of triethylene glycol-dimethyl ether. After 5 days storage at 60° C. under a nitrogen atmosphere, the PGE2 assays 100% of its initial activity.

[11] = PGE2 activity after storage in polyethylene glycol comparison formulations; assay type: physicochemical
Experimental: By comparison, 1 mg. PGE2 and 1 ml. polyethylene glycol 400 assays 54% PGE2 activity after storage for two months at 45° C.; 0.2 mg. PGE2 in 2.7598 g. polyethylene glycol 4,000 assays 70% PGE2 activity after storage for 6 months at room temperature and 72% PGE2 activity after storage for 3 months at 45° C.; a suppository of 0.2 mg. PGE2 in 2.7298 g. base comprising 2% polyethylene glycol 4,000 and 98% polyethylene glycol 1,000 assays 62% PGE2 activity after storage for six months at room temperature; a formulation of PGE2 in polyethylene glycol 400 assays 73% PGE2 activity after 4 months at room temperature; and a formulation of PGE2 in polyethylene glycol 4000 assays 82% PGE2 activity after 5 months at room temperature.

[12] = Storage stability of tetracyclines in cream-like and comparison formulations; conditions: for oxytetracycline hydrochloride percent of initial activity: Example XXXIX cream; for tetracycline activity remaining: after two weeks, 20160 min; for tetracycline activity remaining / stability of comparison formulation: room temperature
[13] = In vitro human skin penetration of labeled (H^3) tetracycline hydrochloride; conditions: cream-like preparation vs 0.5% in 75% propylene glycol and 0.05% in pH 6.6 buffer (both saturated solutions)
[14] = polyethylene glycol 400 in place of dialkylated vehicle, 2 days
[15] = 0.05% tetracycline hydrochloride in pH 6.6 buffer
[16] = 0.5% tetracycline hydrochloride in 75% propylene glycol

In the case of CCCCCCCCCCCCCCCC(=O)N(CCO)CCO [palmitic acid diethanolamide], the decomposition after storage ([1]; 5 mg/ml in polyethylene glycol-350-dimethyl ether with 0.05% BHA) is reported as “undecomposed” and the decomposition after storage ([1]; 5 mg/ml in polyethylene glycol-350-dimethyl ether) is reported as “undecomposed”.

With O=C(N[C@H](CO)[C@H](O)c1ccc([N+](=O)[O-])cc1)C(Cl)Cl [chloramphenicol] the “chloramphenicol percent of initial activity” value (“chloramphenicol percent” below) ([2]; 0.5 mg/ml in polyethylene glycol-350-dimethyl ether, 0.05% BHA, under air, 2 days) was 95%, the “chloramphenicol percent” value ([2]; 0.5 mg/ml in polyethylene glycol-350-dimethyl ether, 0.05% BHA, under air, 5 days) was 66% and the “chloramphenicol percent” value [2, 14] was 50%. The “chloramphenicol percent” value ([2]; polyethylene glycol 400 in place of dialkylated vehicle, 5 days) was “less than 20%” and the “shelf-life at room temperature” value ([2]; polyethylene glycol-350-dimethyl ether, 0.05% BHA, extrapolated from 80° C) was “at least 1 year”.

With C[C@@H]1[C@H](O)[C@@H](C)/C=C/C=C/CC/C=C/C=C/C=C/C=C/C(O[C@H]2O[C@H](C)[C@@H](O)[C@H](N)[C@@H]2O)CC2O[C@](O)(CC(O)C(O)CCC(O)CC(O)CC(O)CC(=O)O[C@H]1C)CC(O)C2C(=O)O (stereo partly drawn) [nystatin] the “nystatin percent of initial activity” value ([3]; 2 days) was 56%, the “nystatin percent of initial activity” value ([3]; 5 days) was “less than 40%” and the “decomposition (loss of activity)” value [3, 14] was “total decomposition”.

For CCCCCCCC/C=C\CCCCCCCC(=O)N(CCO)CCO [oleic acid diethanolamide], the “oleamide percent of initial activity” value ([4]; 2 mg/ml in 1,2-dimethoxyethane with 0.025% BHT and 0.025% BHA, 5 weeks, 80° C, 50400 min) was 96%, the “shelf time at 25° C” value ([4]; approximately, 1,2-dimethoxyethane with BHT and BHA, extrapolated from 80° C) was 3-4 years and the lipase inhibition (lipase) was “inhibits lipase”.

For CC(=O)Oc1ccccc1C(=O)O [aspirin, acetylsalicylic acid], the “time for 10% decomposition” value ([5]; 80° C, Jun et al. 1972) is listed as 2 h, the “shelf-life at 25° C” value ([5]; from published report Jun et al. 1972) is listed as 3.5 months and the “time for 10% decomposition (t90)” value ([6]; 100 mg aspirin per ml polyethylene glycol-350-dimethyl ether, under air, 80° C) is listed as 24 h. The “time for 10% decomposition” value ([6]; 0.5 g aspirin and 0.05% BHA per 1.0 g polyethylene glycol-750-dimethyl ether, 80° C) was 27 h, the “shelf-life at 25° C” value ([6]; polyethylene glycol-350-dimethyl ether, under air) was roughly 30 month and the “shelf-life at 25° C” value ([6]; polyethylene glycol-750-dimethyl ether with 0.05% BHA) was roughly 30 month.

In the case of CCCCC[C@H](O)/C=C/[C@H]1[C@H](O)CC(=O)[C@@H]1C/C=C\CCCC(=O)O [PGE2, 11α,15α-dihydroxy-9-keto-5,13-prostadienoic acid], the “PGE2 percent of initial activity” value [7] is listed as 100%, the “chemical stability after storage” value [8] is listed as “high degree of chemical stability” and the chemical stability [9] is listed as “relatively unstable”. The “PGE2 percent of initial activity” value ([10]; 1 mg/ml in 1,2-dimethoxyethane, 12 days) was 100%, the “PGE2 percent of initial activity” value ([10]; 1 mg/ml in triethylene glycol-dimethyl ether, 5 days) was 100% and the “PGE2 activity after storage” value ([11]; 0.2 mg PGE2 in 2.7598 g polyethylene glycol 4,000, 3 months, 45° C, 129600 min) was 72%. The “PGE2 activity after storage” value ([11]; 0.2 mg PGE2 in 2.7598 g polyethylene glycol 4,000, 6 months, room temperature, 259200 min) was 70%, the “PGE2 activity after storage” value ([11]; 1 mg PGE2 and 1 ml polyethylene glycol 400, two months, 45° C, 86400 min) was 54% and the “PGE2 activity after storage” value ([11]; in polyethylene glycol 400, 4 months, room temperature, 172800 min) was 73%. For the same molecule, the “PGE2 activity after storage” value ([11]; in polyethylene glycol 4000, 5 months, room temperature, 216000 min) was 82% and the “PGE2 activity after storage” value ([11]; suppository, 0.2 mg PGE2 in 2.7298 g base (2% polyethylene glycol 4,000, 98% polyethylene glycol 1,000), six months, room temperature, 259200 min) was 62%.

In the case of CN(C)C1C(=O)C(C(N)=O)=C(O)C2(O)C(=O)C3=C(O)c4c(O)cccc4C(C)(O)C3C(O)C12 (stereo not drawn) [oxytetracycline hydrochloride], the “oxytetracycline hydrochloride percent of initial activity” value (from here on “oxytetracycline hydrochloride percent”) ([12]; 2 months, 45° C, 86400 min) is reported as 92%, the “oxytetracycline hydrochloride percent” value ([12]; 3 months, 37° C, 129600 min) is reported as 92% and the “oxytetracycline hydrochloride percent” value ([12]; 4 months, 45° C, 172800 min) is reported as 75%.

In the case of CN(C)C1C(=O)C(C(N)=O)=C(O)C2(O)C(=O)C3=C(O)c4c(O)cccc4C(C)(O)C3CC12 (stereo not drawn) [tetracycline hydrochloride], the skin penetration [13] is reported as “equivalent skin penetration”, the tetracycline activity remaining [12, 15] is reported as “less than 50%” and the “stability of comparison formulation” value [12, 15] is reported as “highly unstable”. For the same molecule, the tetracycline activity remaining [12, 16] was “less than 50%”, the “stability of comparison formulation” value [12, 16] was “highly unstable” and the “tetracycline hydrochloride percent of initial activity” value ([12]; Example XXXVIII cream: 1.0% drug, 79.0% polyethylene glycol-350-dimethyl ether, 20.0% polyethylene glycol-6000-dimethyl ether, 0.05% BHA, 4 months, 45° C, 175200 min) was 98%.
